Residues, ends and D or L forms follow the SMILES beside them. *: point of attachment. Cbz = O=C(OCc1ccccc1)*; CH2F = FC*
Columns and labels:
Mks [1] = experiment: Shear-flow PPT and PLP generation from Mks treated with caspase inhibitors; assay type: cell-based, human; conditions: 10 μM inhibitor, shear flow 2.5 dyn/cm^2 for 0.5 hour
Description: (§1) Rectangular flow slides (μ-Slide 1^0.6 Luer, ibidi USA) were coated with 50 μg/mL vWF, and ca. 300,000 cultured Mks were seeded into each slide. Mks on slides were cultured overnight (21 hours) before being exposed to shear flow. Medium (IMDM supplemented with 10% BIT9500, 50 ng/mL TPO, 50 ng/mL rhSCF, 0.5 μg/mL hLDL and 6.25 mM nicotinamide) was perfused over Mks on slides by two syringe pumps (Dual NE-4000 pump; New Era Pump Systems) to achieve the desirable shear-stress level. For BrdU incorporation assays, the medium was supplemented with 10 μM BrdU (BD). During shear flow, some Mks were detached from the slide surface and released into the circulating medium. These are considered as non-adherent Mks. Adherent Mks were harvested for analysis using non-enzymatic cell dissociation buffer (Sigma-Aldrich). In some experiments, adherent Mks were fixed with 2% paraformaldehyde directly on slides and processed for immunofluorescence analysis. In some experiments, Mks were treated with caspase inhibitors, 10 μM z-VAD.fmk (Bachem) or 10 μM z-DEVD.fmk (Bachem) starting on d9. Inhibitor-treated Mks were seeded into flow slides at d9 or d11, were exposed to shear flow (2.5 dyn/cm^2 for 0.5 hour) in medium supplemented with the same inhibitor, and were harvested for PPT, PLP and CD41^+ microparticle counting.
Large cells were excluded from PLP preparations by centrifugation at 150× g for 10 minutes. PLPs were then pelleted by centrifugation at 1000× g for 10 minutes from the PLP-enriched supernatant. After one wash, PLPs were resuspended in Tyrode's buffer and used in platelet-stimulation assays. The number of PLPs and PPTs per slide was measured using a Multisizer™ 3 Coulter Counter (Beckman Coulter).
It has been shown that activation of caspase-3 and 9 is required for PPT formation. Here we wanted to investigate if shear stress affects caspase-3 activation in Mks. We chose caspase-3 as a marker of late apoptosis to complement our Annexin V studies above, which pertain to early apoptotic events. First, we confirmed that caspase-3 in indeed activated during in vitro Mk maturation with our culture protocol. […] We also observed a correlation between the activation level of caspase-3 in Mks (represented as the ratio of MFI of active caspase-3 over isotype control) and PPT formation (FIG. 4C), which is consistent with previous studies discussed above. […] Exposure of Mks for 2 hours to 1 dyn/cm^2 enhanced caspase-3 activation both at d10 and d12 (FIG. 4D) by 1.7 to 5.6 fold depending on the donor and day. Since, as discussed, caspase-3 activation is necessary for PPT formation, one mechanism by which shear stress may promote PPT formation (see below) is by enhancing caspase-3 activation. To investigate this hypothesis, Mks were treated with 10 μM z-VAD.fmk (pan-caspase inhibitor) or z-DEVD.fmk (caspase-3 inhibitor) and were then exposed to shear flow. After flow application, PLPs (d=1-3 μm) and PPTs (d=3-10 μm) were harvested and counted. The effect of shear stress on particle generation was assessed using the ratio of PLP or PPT number from one slide of Mks under flow conditions over that under static conditions. […] However, at d12, both of z-VAD fmk and z-DEVD.fmk decreased both the PPT and PLP ratios (FIGS. 4E and 4F). […] At d12 when Mks produced more PPTs and stared to form a significant number of PLPs, the effect of shear on PPT and PLP generation was attenuated by caspase inhibitors.

Mks [2] = experiment: Shear-enhanced MkMP generation from Mks treated with caspase inhibitors; assay type: cell-based, human; conditions: d10 and d12 Mks, 10 μM inhibitor, shear flow 2.5 dyn/cm^2 for 0.5 hour
Description: as §1, with “Inhibitor-treated Mks were seeded into flow slides at d9 or d11, were exposed to shear flow (2.5 dyn/cm^2 for 0.5 hour) in medium supplemented with the same inhibitor, and were harvested for PPT, PLP and CD41^+ microparticle counting.” left out
For both static cultures and cultures exposed to shear flow, Mk cells were removed from the culture medium by centrifugation (150× g for 10 minutes). […] Concentrations of MkMPs (and of PMPs and Mks) were measured by flow cytometry using 1.34 μm microbeads (Sphero Tech) as standard. […]

Row | Structure (SMILES) | PLP ratio (PLP number under flow conditions over static conditions) (Mks [1]; d10 Mks) | PPT ratio (PPT number under flow conditions over static conditions) (Mks [1]; d10 Mks) | PLP ratio (PLP number under flow conditions over static conditions) (Mks [1]; d12 Mks) | PPT ratio (PPT number under flow conditions over static conditions) (Mks [1]; d12 Mks) | Ratio of number of MkMPs under shear flow over static conditions (Mks [2])
1 | COC(=O)C[C@H](NC(=O)[C@H](C)NC(=O)[C@@H](NC(=O)OCc1ccccc1)C(C)C)C(=O)CF [z-VAD.fmk] (Cbz-Val-Ala-Asp(OMe)-CH2F) | no statistically significant effect | no statistically significant effect | decreased | decreased | only treatment with caspase-3 inhibitor (z-DEVD fmk) attenuated the effect of shear stress
2 | COC(=O)CC[C@H](NC(=O)[C@H](CC(=O)OC)NC(=O)OCc1ccccc1)C(=O)N[C@H](C(=O)N[C@@H](CC(=O)OC)C(=O)CF)C(C)C [z-DEVD.fmk] | decreased only the PPT ratio | decreased | decreased | decreased | attenuated the effect of shear stress
